# From publication PMC11696576, “Next generation thiazolyl ketone inhibitors of cytosolic phospholipase A2 α for targeted cancer therapy” (Nature Communications, 2025)
# Values joined by “and” are separate entries in the source; they are usually repeats but may differ in a detail not shown here. Equal entries are not always repeated. Where two headings read alike, the source gives them in different places.
# System: panel of 66 cancer cell lines
# Test: cancer cell line screen, proliferation assay (ATPlite, 72 h)
# Format: cell-based, human
# Details: for IC50: Homo sapiens, read-out: IC50; for raw signal, dose-response (Figure S7a): rep1, rep2, listed as AVX420
# Excerpt: Targeting specific molecular vulnerabilities in cancer is considered a key approach to reducing the adverse effects of chemotherapy. However, the events that govern the susceptibility to suppression of the cPLA2α in cancer remain largely unexplored. We therefore took the approach of screening the antiproliferative activity of AVX420 in a panel of 66 cancer cell lines (hereafter referred to as the cancer cell line screen or CCLS) to allow us to investigate molecular and genetic vulnerabilities to the drug.
# Screening of compound activities in 66 cancer cell lines was carried out at the Netherlands Translation Research Center. Briefly, proliferation assays were performed 72 h after compound addition using ATPlite 1step reagent (Perkin Elmer). IC50s calculated by non-linear regression analysis were used as a measure of compound activity for investigating associations with genetic factors. A complete description of the laboratory and data analysis methods are available in the Supplementary Information file (Supplemental Methods: Cancer Cell Line Screening).
# Cancer cell line screening
# Cell proliferation assays
# All cell lines were from the American Type Culture Collection (ATCC) Manassas, Virginia (US) and maintained under ATCC-recommended protocols and within 9 pas- […]
# DMSO at -80°C until one hour before use. Cells exposed within one hour after thaw-ing of the compound stocks. Final compound concentration range in the assay was 10 […]
# cated by supplier. Compounds were dissolved in 100 % DMSO and stored at room temperature. Final concentration of the reference compounds in the assay was 3.16x10-5 M to 3.16x10-9 M. The final DMSO concentration during incubation was […]
# Cell lines were plated in Advanced RPMI 1640 (Gibco, ref 12633-012) cell culture medium, containing 1% Glutamax solution (Gibco, ref 35050-038), 0.4% Pen Strep solution (Gibco, ref 15140-122) and bovine serum. The cPLA2α inhibitors were tested in 0.5% bovine serum (HyClone, ref SH30072.03) with the exception of769-P, A-204, BT-549, SR, T98G, which were tested in the presence of 1.0% serum and A-704 and LNCaP FGS, which were tested in the in the presence of 10% serum. Reference com-pounds were all tested in the presence of 10% bovine serum.
# Cells were dispensed in a 384-well plate, at a concentration of 200 - 3200 cells per well, depending on the cell line, in 45 μL medium. Plated cells were incubated in a humidified atmosphere of 5% CO2 at 37 °C. After 24 hours, 5 μL of compound dilu-tion was added and plates were further incubated for another 72 hours. After 72 hours, 25 μL of ATPlite 1Step™ (PerkinElmer) solution was added to each well, and subse-quently shaken for 2 minutes. After 10 minutes of incubation in the dark, the lumines-cence was recorded on an Envision multimode reader (PerkinElmer).
# Cell growth control. The cellular doubling times of all cell lines are calculated from the t = 0 hours and t = 72 hours growth signals of the untreated cells. If the doubling time is out of specification (0.5 – 2.0 times deviating from historic average) the assay […]
# IC50s were calculated by non-linear regression using IDBS XLfit 5. The percentage growth after 72h (%-growth) was calculated as follows: 100% x (luminescence t = 72h / luminescence untreated,t=72h). This was fitted to the 10log compound concentration (conc) by a 4-parameter logistics curve: %-growth = bottom + (top – bottom) / (1+ 10(logIC50 – conc)*hill)), where hill is the Hill-coefficient, and bottom and top the asymptotic mini-mum and maximum cell growth that the compound allows in that assay.
# All analysis were performed in the statistical software package R and visualized using GraphPad Prism version 10.0 .0
structure (smiles),measurement,setting,value
CCCCCCCOc1ccc(OCC(=O)c2nc(C(=O)OC)cs2)cc1 [GK420],IC50,SJCRH30,16.6 µM
same,IC50,SK-N-AS,14.2 µM
same,IC50,SK-N-FI,20 µM
same,IC50,SNU-C2B,19.3 µM
same,IC50,SR,12.5 µM
same,IC50,"SUP-T1, SUP-T1",17.9 µM
same,IC50,"SW48, SW48",22.6 µM
same,IC50,"SW480, SW480",14.3 µM
same,IC50,"SW948, SW948",21.1 µM
same,IC50,"SW-620, SW620",20 µM
same,IC50,T98G,42.4 µM
same,IC50,"T-24, T24",14.7 µM
same,IC50,TT,27.7 µM
same,IC50,"U2OS, U-2 OS",8.01 µM
same,IC50,U-87 MG,20.3 µM
same,IC50,VA-ES-BJ,23 µM
same,pIC50,"Hs578T, breast","4,834"
same,pIC50,"J82, urinary_tract","4,716"
same,"raw signal, dose-response (Figure S7a)","Jurkat E6.1, Log10 M -5",18200 and 21347
same,"raw signal, dose-response (Figure S7a)","Jurkat E6.1, Log10 M -5.5",21213 and 30520
same,"raw signal, dose-response (Figure S7a)","Jurkat E6.1, Log10 M -6.5",2114520 and 2235427
same,"raw signal, dose-response (Figure S7a)","Jurkat E6.1, Log10 M -7",2341173 and 2551267
same,"raw signal, dose-response (Figure S7a)","Jurkat E6.1, Log10 M -7.5",2392960 and 2321813
same,"raw signal, dose-response (Figure S7a)","Jurkat E6.1, Log10 M -8",2356933 and 2578573
same,pIC50,"Jurkat, blood","6,245"
same,pIC50,"K562, blood","4,814"
same,"raw signal, dose-response (Figure S7a)","K562, Log10 M -4",74307 and 48600
same,"raw signal, dose-response (Figure S7a)","K562, Log10 M -4.5",1190933 and 1527307
same,"raw signal, dose-response (Figure S7a)","K562, Log10 M -5",13304880 and 13536973
same,"raw signal, dose-response (Figure S7a)","K562, Log10 M -5.5",15252080 and 16813307
same,pIC50,"KU812, blood","5,039"
same,"raw signal, dose-response (Figure S7a)","KU812, Log10 M -4",2867 and 5600
same,"raw signal, dose-response (Figure S7a)","KU812, Log10 M -4.5",66600 and 77573
same,"raw signal, dose-response (Figure S7a)","KU812, Log10 M -5.5",3841840 and 3310707
same,"raw signal, dose-response (Figure S7a)","KU812, Log10 M -6",3516360 and 3607827
same,"raw signal, dose-response (Figure S7a)","KU812, Log10 M -6.5",3576653 and 3459747
same,"raw signal, dose-response (Figure S7a)","KU812, Log10 M -7",3573240 and 3479493
same,"raw signal, dose-response (Figure S7a)","KU812, Log10 M -7.5",3396627 and 3395373
same,"raw signal, dose-response (Figure S7a)","KU812, Log10 M -8",3660107 and 3329680
same,pIC50,"LoVo, large_intestine","4,781"
same,pIC50,"MCF7, breast","4,833"
same,pIC50,"MG63, bone","4,644"
same,pIC50,"MIAPaCa2, pancreas","4,884"
same,"raw signal, dose-response (Figure S7a)","MOLT-4, Log10 M -4",6187 and 5813
same,"raw signal, dose-response (Figure S7a)","MOLT-4, Log10 M -5",64080 and 125733
same,"raw signal, dose-response (Figure S7a)","MOLT-4, Log10 M -5.5",4862747 and 5232987
same,"raw signal, dose-response (Figure S7a)","MOLT-4, Log10 M -6",6801747 and 6267067
same,"raw signal, dose-response (Figure S7a)","MOLT-4, Log10 M -6.5",7366227 and 6477733
same,"raw signal, dose-response (Figure S7a)","MOLT-4, Log10 M -7",6306707 and 6935720
same,"raw signal, dose-response (Figure S7a)","MOLT-4, Log10 M -7.5",6661907 and 6660467
same,"raw signal, dose-response (Figure S7a)","MOLT-4, Log10 M -8",6315747 and 6363187
same,pIC50,"MeWo, skin","4,711"
same,pIC50,"NCIH82, lung","5,315"
same,pIC50,"NCIH460, lung","4,489"
same,pIC50,"RPMI7951, skin","4,852"
same,pIC50,"RT4, urinary_tract","4,477"
same,pIC50,"SHP77, lung","4,861"
same,pIC50,"SKNAS, peripheral_nervous_system","4,847"
same,pIC50,"SKNFI, peripheral_nervous_system","4,698"
same,"raw signal, dose-response (Figure S7a)","SR, Log10 M -4",11267 and 10080
same,"raw signal, dose-response (Figure S7a)","SR, Log10 M -4.5",14987 and 22200
same,"raw signal, dose-response (Figure S7a)","SR, Log10 M -5",2171560 and 2105733
same,"raw signal, dose-response (Figure S7a)","SR, Log10 M -5.5",2501520 and 2976000
same,"raw signal, dose-response (Figure S7a)","SR, Log10 M -6",2547880 and 3067093
same,"raw signal, dose-response (Figure S7a)","SR, Log10 M -6.5",2848387 and 3116973
same,"raw signal, dose-response (Figure S7a)","SR, Log10 M -7",3165427 and 3131507
same,"raw signal, dose-response (Figure S7a)","SR, Log10 M -7.5",3036893 and 2296373
same,"raw signal, dose-response (Figure S7a)","SR, Log10 M -8",3222893 and 3197013
same,"raw signal, dose-response (Figure S7a)","SUP-T1, Log10 M -4",26587 and 37653
same,"raw signal, dose-response (Figure S7a)","SUP-T1, Log10 M -5",6935960 and 5931427
same,"raw signal, dose-response (Figure S7a)","SUP-T1, Log10 M -5.5",6473080 and 6695013
same,"raw signal, dose-response (Figure S7a)","SUP-T1, Log10 M -6",6511467 and 6816760
same,"raw signal, dose-response (Figure S7a)","SUP-T1, Log10 M -6.5",6737680 and 6611147
same,"raw signal, dose-response (Figure S7a)","SUP-T1, Log10 M -7",6237733 and 6274507
same,"raw signal, dose-response (Figure S7a)","SUP-T1, Log10 M -7.5",6362947 and 6848640
same,"raw signal, dose-response (Figure S7a)","SUP-T1, Log10 M -8",6336067 and 6341827
same,pIC50,"SUPT1, blood","4,747"
same,pIC50,"SW48, large_intestine","4,646"
same,pIC50,"SW480, large_intestine","4,843"
same,pIC50,"SW620, large_intestine","4,698"
same,pIC50,"SW948, large_intestine","4,676"
same,pIC50,"T24, urinary_tract","4,833"
same,pIC50,"T98G, central_nervous_system","4,373"
same,pIC50,"TT, thyroid","4,558"
same,pIC50,"U2OS, bone","5,097"
same,pIC50,"U87MG, central_nervous_system","4,692"
same,pIC50,"VAESBJ, soft_tissue","4,638"
